Several values for one entry are separate records, joined by “and”; a condition that tells them apart may be missing. Identical values can stand only once. Like-named read-outs stand apart in the source and are kept apart here.
Tests used:
BTK phosphorylation = assay: Immunoblot of phospho-BTK; assay type: cell-based, human; settings: AML cell lines; MOLM-13 1 µM for 1 hour (Figure S2)
Description: Cells were washed in ice-cold PBS then lysed in 1X Cell Lysis Buffer (CST) supplemented with proteinase and phosphatase inhibitors cocktail (Roche). Pierce BCA Protein Assay was used to quantify the protein lysates (Thermo Fisher Scientific, Waltham, MA). For Immunoblotting, 15–25 μg of protein lysate was prepared in 2X or 4X Laemmeli’s sample buffer (Bio-Rad Laboratories, Hercules, CA) and heated for 5 min at 100 °C. Samples were separated on 8% sodium dodecyl sulfate polyacrylamide gel and transferred onto nitrocellulose membrane (Bio-Rad Laboratories, Hercules, CA). The membranes were blocked for 1 h in Blocker BLOTTO Blocking Buffer (Thermo Fisher Scientific, Waltham, MA) or 5% non-fat milk followed by overnight incubation at 4 °C with primary antibody followed by HRP-conjugated secondary antibodies and visualized with chemiluminescent Pierce ECL Substrate (Thermo Fisher Scientific, Waltham, MA) on X-ray films.
Immunoblot analysis for MOLM-13, MV4-11, and OCI-AML3 AML cell lines (representative of 2-3 independent blots). […] Twenty to 25 μg of total protein lysate was loaded per lane.

OCI-AML3 = assay: MTS proliferation assay 72 h, OCI-AML3; assay type: cell-based; settings: Homo sapiens, OCI-AML-3, read-out: Estimated absolute µM IC50 (95% CI), 4-parameter logistic model
Description: (§1) A total of 5000–30,000 cells from the lines above were treated in a 96-well plate for 72 h. CellTiter 96 Aqueous MTS reagent (Promega, Madison, WI) was added to cells followed by a 3-h incubation at 37 °C, 5% CO2. The absorbance was measured at 490 nm using DTX 880 plate reader and the half maximal inhibitory concentration (IC50) was calculated using GraphPad Prism 7 (GraphPad Software, La Jolla, CA) and SAS/STAT software (SAS v9.4 for Windows, SAS Institute, Inc., Cary, NC).

THP-1 = assay: MTS proliferation assay 72 h, THP-1; assay type: cell-based, human
Description: (§2) A total of 5000–30,000 cells from the lines above were treated in a 96-well plate for 72 h. CellTiter 96 Aqueous MTS reagent (Promega, Madison, WI) was added to cells followed by a 3-h incubation at 37 °C, 5% CO2. The absorbance was measured at 490 nm using DTX 880 plate reader and the half maximal inhibitory concentration (IC50) was calculated using GraphPad Prism 7 (GraphPad Software, La Jolla, CA) and SAS/STAT software (SAS v9.4 for Windows, SAS Institute, Inc., Cary, NC). For the MOLM-13 resistant and the Ba/F3-FLT3-ITD/TKD cell lines, cells were treated for 72 h and cell viability was evaluated using MTT assay (Roche Diagnostics. Mannheim. Germany) according to the manufacturer’s instructions.

[1] = MTT proliferation assay 72 h, Ba/F3 lines with FLT3-ITD, TKD or both (all lines together); assay type: cell-based, murine; settings: Mus musculus, BaF3, range across cell lines, read-out: IC50 range over the Ba/F3 FLT3 mutant cell lines
MOLM13 = assay: MTT proliferation assay 72 h, parental MOLM13; assay type: cell-based, human
Description: as §2

[2] = cited from earlier work
Ba/F3 FLT3-ITD/D835H = assay: MTT proliferation assay 72 h, Ba/F3 FLT3-ITD/D835H; assay type: cell-based, murine; settings: Mus musculus, BaF3, read-out: Estimated absolute µM IC50 and 95% CI
Description: (§3) For the MOLM-13 resistant and the Ba/F3-FLT3-ITD/TKD cell lines, cells were treated for 72 h and cell viability was evaluated using MTT assay (Roche Diagnostics. Mannheim. Germany) according to the manufacturer’s instructions.

[3] = tested on: Ba/F3 FLT3-ITD pMIT-Empty
Description: (§4) CellTiter 96 Aqueous MTS reagent (Promega, Madison, WI) was added to cells followed by a 3-h incubation at 37 °C, 5% CO2. The absorbance was measured at 490 nm using DTX 880 plate reader and the half maximal inhibitory concentration (IC50) was calculated using GraphPad Prism 7 (GraphPad Software, La Jolla, CA) and SAS/STAT software (SAS v9.4 for Windows, SAS Institute, Inc., Cary, NC).

Ba/F3 FLT3-D835Y = assay: MTT proliferation assay 72 h, Ba/F3 FLT3-D835Y; assay type: cell-based, murine; settings: Mus musculus, BaF3, read-out: Estimated absolute µM IC50 and 95% CI
Description: as §3

MOLM13-Res = assay: MTT proliferation assay 72 h, MOLM13-Res (D835Y); assay type: cell-based, human
Source text: As one of the main resistance mechanisms to FLT3 inhibitors is the acquisition of TKD mutations, we tested the anti-proliferative activity of ARQ 531 in the MOLM-13 TKI-resistant (MOLM13-Res) cell line previously described in Zimmerman et al.. In this model, MOLM-13 cells have gained a D835Y mutation via continuous exposure to the FLT3 inhibitor tandutinib.

[4] = tested on: Ba/F3 FLT3-ITD pMIT SYK-TEL
Description: as §4

Ba/F3 FLT3-ITD = assay: MTT proliferation assay 72 h, Ba/F3 FLT3-ITD; assay type: cell-based, murine; settings: Mus musculus, read-out: Estimated absolute µM IC50 and 95% CI
Description: as §2

MV4-11 = assay: MTS proliferation assay 72 h, MV4-11; assay type: cell-based; settings: Homo sapiens, MV4-11, read-out: Estimated absolute µM IC50 (95% CI), 4-parameter logistic model
Description: as §1

[5] = set-up: method as in doi:10.1182/blood-2018-99-116338; settings: dose escalation study; cited from earlier work
Ba/F3 FLT3-ITD/D835Y = assay: MTT proliferation assay 72 h, Ba/F3 FLT3-ITD/D835Y; assay type: cell-based, murine; settings: Mus musculus, BaF3, read-out: Estimated absolute µM IC50 and 95% CI
Description: as §3

MOLM-13 = assay: MTS proliferation assay 72 h, MOLM-13
Description: as §2

Ba/F3 GFP+IL3 = assay: MTT proliferation assay 72 h, Ba/F3 GFP+IL3; assay type: cell-based, murine
Description: as §2

[6] = set-up: method as in PMID 30093506; settings: cynomolgus monkeys, cited from earlier work

Description for Ba/F3 FLT3-ITD Parental: as §4

Q: What does the source list for O=C(c1ccc(Oc2ccccc2)cc1Cl)c1c[nH]c2ncnc(N[C@@H]3CC[C@@H](CO)OC3)c12 [ARQ 531]?
A: effect on BTK phosphorylation (BTK phosphorylation): potently inhibits BTK; IC50 (OCI-AML3): 1.51 µM; resistant to concentrations up to (THP-1): > 10 µM; Estimated absolute µM IC50 (95% CI) (THP-1; 4-parameter logistic model): Unable to calculate IC50; IC50 [1]: 1.2 to 7.6 µM; IC50 (MOLM13; Homo sapiens, MOLM-13, 72 h, read-out: Estimated absolute µM IC50 and 95% CI, MTT, 72 h): 1.33 µM; IC50 (MOLM13; read-out: Estimated absolute µM IC50 and 95% CI, MTT, 72 h): 1.3 µM; Cmax ([2]; 65 mg daily dose): ~3000 nM; concentration steady-state levels ([2]; ongoing phase 1 dose escalation trial in relapsed or refractory CLL): exceeding 1 μM; IC50 (Ba/F3 FLT3-ITD/D835H): 3.76 µM; IC50 [3]: 4.24 µM and 2.7 µM and 3.48 µM; IC50 (Ba/F3 FLT3-D835Y): 6.11 µM; IC50 (MOLM13-Res; Homo sapiens, read-out: Estimated absolute µM IC50 and 95% CI, MTT, 72 h): 3.42 µM; IC50 (MOLM13-Res; read-out: Estimated absolute µM IC50 and 95% CI, MTT): 3.4 µM; IC50 [4]: 11 µM and 5.94 µM and 6.61 µM; IC50 (Ba/F3 FLT3-ITD): 1.21 µM; IC50 (MV4-11): 1.45 µM; treatment emergent adverse events [5]: no reported treatment emergent adverse events; IC50 (Ba/F3 FLT3-ITD/D835Y): 7.55 µM; IC50 (MOLM-13; Homo sapiens, MOLM-13, 72 h, read-out: Estimated absolute µM IC50 (95% CI)): 0.69 µM; in vitro anti-proliferative activity (MOLM-13; MOLM-13, 1 µM, 72 hours MTS (ibrutinib 1 hour washout)): demonstrated in vitro anti-proliferative activity; IC50 (Ba/F3 FLT3-ITD Parental): 2710 nM and 2530 nM; Estimated absolute µM IC50 and 95% CI (Ba/F3 GFP+IL3): Unable to calculate IC50; plasma half-life (t1/2) ([6]; not calculated due to absence of elimination phase): long plasma half-life; Tmax ([6]; single 10 mg/kg oral dose): ≤ 6 h; oral bioavailability ([6]; single 10 mg/kg oral dose): 72%; share of peak concentration present at 24 h ([6]; single 10 mg/kg oral dose): 75%; Cmax ([6]; single 10 mg/kg oral dose, read-out: maximum concentration (Cmax)): 9 µM

Source: PMC6988309, “Preclinical efficacy for a novel tyrosine kinase inhibitor, ArQule 531 against acute myeloid leukemia” (Journal of Hematology & Oncology, 2020)
